Laboratory results reported in patent publication US20160324863A1, “TARGETED CANCER TREATMENT BY HSP90 INHIBITORS GANETESPIB AND NVP-AUY922” (SYNTA PHARMACEUTICALS CORP., priority 2014, published 2016).
Blank lines part the entries; values can stand above or below the molecule they belong to.

Columns and labels:
[1] = tested on: SW780 bladder cancer cell line; assay: CellTiter-Glo viability assay, SW780; format: cell-based; settings: 72 hours (FIG. 12)
Description: (§1) Cellular viability was assessed using the CellTiter-Glo Luminescent Cell Viability Assay (Promega) according to manufacturer protocols. Bladder cancer cell lines were seeded into 96-well plates based on optimal growth rates determined empirically for each line. Twenty-four hours after plating, cells were dosed with graded concentrations of ganetespib for 72 hours. CellTiter-Glo was added (50% v/v) to the cells, and the plates incubated for 10 minutes prior to luminescent detection in a SpectraMax Plus 384 microplate reader (Molecular Devices). Data were normalized to percent of control and IC50 values used to determine the sensitivity of each line. For the comparative analyses with ganetespib and BGJ398, RT112 cells were treated with graded concentrations of each compound for 72 hours and cell viability measured as above. For the evaluation of apoptotic induction, caspase activity was assessed using the Caspase-Glo 3/7 assay (Promega) according to manufacturer protocols. Twenty-four hours after plating, RT112 cells were treated with graded concentrations of ganetespib for 24 hours. Caspase-Glo was added to cells (50% v/v) and the plates incubated for 1 hour prior to luminescent detection.

[2] = tested on: RT4 bladder cancer cell line; assay: CellTiter-Glo viability assay, RT4; format: cell-based; settings: 72 hours (FIG. 8), read-out: IC50 values
Description: as §1

[3] = tested on: FGFR3-TAAC3 in RT112 cells; assay: Western blotting of FGFR3-TAAC3 and signaling proteins in RT112 cells; format: cell-based; settings: 100 nM, 24 hours
Description: Following in vitro assays, tumor cells were disrupted in lysis buffer on ice for 10 minutes. Lysates were clarified by centrifugation and equal amounts of proteins resolved by SDS-PAGE before transfer to nitrocellulose membranes (Bio-Rad). Membranes were blocked with StartingBlock T20 blocking buffer (Thermo Scientific) and immunoblotted with the indicated antibodies. Antibody-antigen complexes were visualized using an Odyssey system (LI-COR).

[4] = tested on: RT112 bladder cancer cell line; assay: CellTiter-Glo viability assay, RT112; format: cell-based; settings: Homo sapiens, RT-112, 72-hour combination viability assay, single inhibitor, read-out: approximate IC50 concentrations
Description: as §1

RT112 xenografts = assay: RT112 xenograft tumor model; format: in vivo; settings: BGJ398 10 mg/kg p.o. daily, 3 weeks
Description: CD-1 nude mice (Charles River Laboratories, Wilmington, Mass.) at 7-12 weeks of age were maintained in a pathogen-free environment and all in vivo procedures were approved by the Synta Pharmaceuticals Corp. Institutional Animal Care and Use Committee. RT112 cells (5×10^6) were subcutaneously implanted into female mice and animals bearing established tumors (˜150 mm^3) were randomized into treatment groups of 8. Mice were i.v. dosed with ganetespib (150 mg/kg) once weekly or p.o. dosed with BGJ398 (10 mg/kg) daily, either alone or in combination, for 3 weeks. Tumor growth inhibition was monitored by tumor volume measurements twice weekly. As a measurement of in vivo efficacy, the % T/C value was determined from the change in average tumor volumes of each treated group relative to the vehicle treated animals. Statistical significance was determined using two-way ANOVA followed by Bonferroni post tests.

SMILES: C=CCNC1=C2C[C@@H](C)C[C@H](OC)[C@H](O)[C@@H](C)/C=C(\C)[C@H](OC(N)=O)[C@@H](OC)/C=C\C=C(/C)C(=O)NC(=CC1=O)C2=O [17-AAG, 17-allylamino-17-demethoxygeldanamycin]
- cytotoxicity / sensitivity of cells (in words) [1]: acutely sensitive

SMILES: CO[C@H]1/C=C\C=C(/C)C(=O)NC2=CC(=O)C(NCCN(C)C)=C(C[C@@H](C)C[C@H](OC)[C@H](O)[C@@H](C)/C=C(\C)[C@@H]1OC(N)=O)C2=O [17-DMAG, 17-dimethylaminoethylamino-17-demethoxygeldanamycin]
- cytotoxicity / sensitivity of cells (in words) [1]: acutely sensitive

- IC50 [2]: > 1000 nM
SMILES: CCNC(=O)c1noc(-c2cc(C(C)C)c(O)cc2O)c1-c1ccc(CN2CCOCC2)cc1 [AUY922]

SMILES: CCN1CCN(c2ccc(Nc3cc(N(C)C(=O)Nc4c(Cl)c(OC)cc(OC)c4Cl)ncn3)cc2)CC1 [BGJ398, reference compound]
- total FGFR3-TAAC3 expression [3]: did not affect
- IC50 [4]: ~5 nM
- T/C value (RT112 xenografts): −20%
